Test results reported in PubChem BioAssay AID1259407 (Chemical Carcinogenesis Research Information System (CCRIS), 2018).
Activity calls are given as the source filed them. How the calls were made is not given here.

Test system: CCRIS mutagenicity, Ames/micronucleus/aberration tests
Assay: CCRIS mutagenicity studies
[1] = Test System: AMES SALMONELLA TYPHIMURIUM, Strain/Indicator: TA100, Metabolic Activation: NONE, Method: PREINCUBATION
[2] = Test System: CHINESE HAMSTER V-79, Strain/Indicator: V-79/8-AZAGUANINE, Metabolic Activation: NONE, Method: STANDARD PLATE
[3] = Test System: AMES SALMONELLA TYPHIMURIUM, Strain/Indicator: TA100, Metabolic Activation: NONE, Method: STANDARD PLATE

Measured: mutagenic call

O=C1[C@H]2CC=CC[C@H]2C(=O)N1SC(Cl)(Cl)Cl
active: Test System: AMES SALMONELLA TYPHIMURIUM, Strain/Indicator: G46, Metabolic Activation: MOUSE, LIVER, S-9, PHENOBARBITAL, Method: STANDARD PLATE active; positive | Test System: AMES SALMONELLA TYPHIMURIUM, Strain/Indicator: TA97A, Metabolic Activation: NONE, Method: STANDARD PLATE active; positive | Test System: AMES SALMONELLA TYPHIMURIUM, Strain/Indicator: TA98, Metabolic Activation: NONE active; positive | Test System: AMES SALMONELLA TYPHIMURIUM, Strain/Indicator: TA98, Metabolic Activation: RAT, LIVER, S-9, AROCLOR 1254 active; positive | Test System: AMES SALMONELLA TYPHIMURIUM, Strain/Indicator: TA98, Metabolic Activation: RAT, LIVER, S-9, AROCLOR 1254, Method: STANDARD PLATE active; positive | Test System: AMES SALMONELLA TYPHIMURIUM, Strain/Indicator: TA100, Metabolic Activation: NONE active; positive | [1] active; positive | Test System: AMES SALMONELLA TYPHIMURIUM, Strain/Indicator: TA100, Metabolic Activation: RAT, LIVER, S-9, AROCLOR 1254 active; positive | Test System: AMES SALMONELLA TYPHIMURIUM, Strain/Indicator: TA100, Metabolic Activation: RAT, LIVER, S-9, Method: STANDARD PLATE active; positive | Test System: AMES SALMONELLA TYPHIMURIUM, Strain/Indicator: TA100, Metabolic Activation: S-9 MIX, Method: STANDARD PLATE active; positive | Test System: AMES SALMONELLA TYPHIMURIUM, Strain/Indicator: TA102, Metabolic Activation: NONE active; positive | Test System: AMES SALMONELLA TYPHIMURIUM, Strain/Indicator: TA102, Metabolic Activation: RAT, LIVER, S-9, AROCLOR 1254 active; positive | Test System: AMES SALMONELLA TYPHIMURIUM, Strain/Indicator: TA104, Metabolic Activation: RAT, LIVER, S-9, PHENOBARBITAL, Method: STANDARD PLATE active; positive | Test System: AMES SALMONELLA TYPHIMURIUM, Strain/Indicator: TA1535, Metabolic Activation: MOUSE, LIVER, S-9, PHENOBARBITAL, Method: STANDARD PLATE active; positive | Test System: AMES SALMONELLA TYPHIMURIUM, Strain/Indicator: TA1535, Metabolic Activation: NONE active; positive | Test System: AMES SALMONELLA TYPHIMURIUM, Strain/Indicator: TA1535, Metabolic Activation: NONE, Method: STANDARD PLATE active; positive | Test System: AMES SALMONELLA TYPHIMURIUM, Strain/Indicator: TA1535, Metabolic Activation: RAT, LIVER, S-9, AROCLOR 1254 active; positive | Test System: AMES SALMONELLA TYPHIMURIUM, Strain/Indicator: TA1535, Metabolic Activation: RAT, LIVER, S-9, PHENOBARBITAL, Method: STANDARD PLATE active; positive | Test System: AMES SALMONELLA TYPHIMURIUM, Strain/Indicator: TA1537, Metabolic Activation: NONE active; positive | Test System: AMES SALMONELLA TYPHIMURIUM, Strain/Indicator: TA1537, Metabolic Activation: NONE, Method: STANDARD PLATE active; positive | Test System: AMES SALMONELLA TYPHIMURIUM, Strain/Indicator: TA1537, Metabolic Activation: RAT, LIVER, S-9, AROCLOR 1254 active; positive | Test System: AMES SALMONELLA TYPHIMURIUM, Strain/Indicator: TA1537, Metabolic Activation: RAT, LIVER, S-9, PHENOBARBITAL, Method: STANDARD PLATE active; positive | Test System: AMES SALMONELLA TYPHIMURIUM, Strain/Indicator: TA1950, Metabolic Activation: NONE, Method: SPOT active; positive | Test System: Ames Salmonella typhimurium, Strain/Indicator: TA100, Metabolic Activation: None, Method: Preincubation active; positive | Test System: Ames Salmonella typhimurium, Strain/Indicator: TA1975P, Metabolic Activation: None, Method: Preincubation active; positive (at higher doses) | Test System: CHINESE HAMSTER OVARY, Strain/Indicator: CHO-K1-BH4 (HGPRT), Metabolic Activation: RAT, LIVER, S-9, AROCLOR, Method: SUSPENSION/PLATE active; positive | [2] active; positive | Test System: CHINESE HAMSTER V-79, Strain/Indicator: V-79/OUABAIN, Metabolic Activation: NONE, Method: STANDARD PLATE active; positive | Test System: E. COLI, Strain/Indicator: WP2, Metabolic Activation: NONE, Method: STANDARD PLATE active; positive | Test System: E. COLI, Strain/Indicator: WP2, Metabolic Activation: RAT, LIVER, S-9, Method: STANDARD PLATE active; positive | Test System: E. COLI, Strain/Indicator: WP2 UVRA, Metabolic Activation: NONE, Method: STANDARD PLATE active; positive | Test System: E. COLI, Strain/Indicator: WP2 UVRA, Metabolic Activation: RAT, LIVER, S-9, AROCLOR 1254, Method: STANDARD PLATE active; positive
inactive: Test System: AMES SALMONELLA TYPHIMURIUM, Strain/Indicator: TA97A, Metabolic Activation: RAT, LIVER, S-9, AROCLOR 1254, Method: STANDARD PLATE inactive; negative | Test System: AMES SALMONELLA TYPHIMURIUM, Strain/Indicator: TA102, Metabolic Activation: RAT, LIVER, S-9, AROCLOR 1254, Method: STANDARD PLATE inactive; negative | Test System: AMES SALMONELLA TYPHIMURIUM, Strain/Indicator: TA102, Metabolic Activation: RAT, LIVER, S-9, PHENOBARBITAL, Method: STANDARD PLATE inactive; negative | Test System: AMES SALMONELLA TYPHIMURIUM, Strain/Indicator: TA104, Metabolic Activation: RAT, LIVER, S-9, AROCLOR 1254, Method: STANDARD PLATE inactive; negative

CN(N=O)C(=O)NC1O[C@H](CO)[C@@H](O)[C@H](O)[C@H]1O (stereo partly specified)
active: [2] active; positive

CC(=O)C(C)=O
inactive: Test System: AMES SALMONELLA TYPHIMURIUM, Strain/Indicator: TA98, Metabolic Activation: NONE, Method: PREINCUBATION inactive; negative | Test System: AMES SALMONELLA TYPHIMURIUM, Strain/Indicator: TA98, Metabolic Activation: RAT, LIVER, S-9, AROCLOR 1254, Method: PREINCUBATION inactive; negative | [1] inactive; negative | Test System: AMES SALMONELLA TYPHIMURIUM, Strain/Indicator: TA100, Metabolic Activation: RAT, LIVER, S-9, AROCLOR 1254, Method: PREINCUBATION inactive; negative | Test System: AMES SALMONELLA TYPHIMURIUM, Strain/Indicator: TA1535, Metabolic Activation: NONE, Method: PREINCUBATION inactive; negative | Test System: AMES SALMONELLA TYPHIMURIUM, Strain/Indicator: TA1537, Metabolic Activation: NONE, Method: PREINCUBATION inactive; negative | Test System: AMES SALMONELLA TYPHIMURIUM, Strain/Indicator: TA1538, Metabolic Activation: NONE, Method: PREINCUBATION inactive; negative | Test System: E. COLI, Strain/Indicator: WP2 UVRA, Metabolic Activation: NONE, Method: PREINCUBATION inactive; negative
active: [3] active; positive | Test System: AMES SALMONELLA TYPHIMURIUM, Strain/Indicator: TA100, Metabolic Activation: RAT, LIVER, S-9, PHENOBARBITAL, Method: STANDARD PLATE active; positive | Test System: AMES SALMONELLA TYPHIMURIUM, Strain/Indicator: TA102, Metabolic Activation: NONE, Method: PREINCUBATION active; positive | Test System: AMES SALMONELLA TYPHIMURIUM, Strain/Indicator: TA102, Metabolic Activation: RAT, LIVER, S-9, AROCLOR 1254, Method: PREINCUBATION active; positive | Test System: AMES SALMONELLA TYPHIMURIUM, Strain/Indicator: TA104, Metabolic Activation: NONE, Method: PREINCUBATION active; positive

O=C1CCCCC1=O
active: [3] active; positive
